Assay: Conversion in NO-assay buffer followed by UPLC
Assay type: physicochemical
Conditions: 37 °C
Protocol: The time-dependent degradation behavior of compounds 4f, 5a–f, and 6a–d as well as celecoxib was followed by UPLC analysis over a time course of 8 days (Figure 4). For that, compounds were incubated at 37 °C in the presence or absence of cysteine in the assay buffer used for the Griess assay. Samples were withdrawn at distinct time points (1, 5, 23, 47, 70, and 191 h), diluted into a mixture of acetonitrile/water, and analyzed.
The time-dependent conversion of NO-COXIBs 5a–f and 6a–d as well as reference compounds 4f and celecoxib in the presence or absence of cysteine in assay buffer was investigated by following the degradation of intact compound and identification of selected degradation products by UPLC. For that, samples were incubated at 37 °C in the assay buffer in the presence or absence of cysteine and at the indicated time point; 5 µL assay buffer of each sample was withdrawn and diluted with 45 µL MeCN/water (50/50 v/v). The samples were thoroughly vortexed and then subjected to UPLC analysis. All samples of one time point were analyzed within a total analysis time of approximately 2.5 h. Conversion was monitored at 254 nm using the following UPLC system: column Aquity UPLC® HSS C18 column (Waters Corporation, Milford, MA, USA; 100 × 2.1 mm, 1.8 µm, 130 Å), UPLC H-Class (Waters Corporation, Milford, MA, USA): quaternary gradient pump QSM, autosampler FTN, column heater CHA, and diode array detector PDAeλ, γ detector Gabi Star (Raytest Isotopenmeßgeräte GmbH, Straubenhardt, Germany), flow rate 0.4 mL/min, eluent: (A): 0.1% acetic acid in MeCN/MeOH 1/1/(B): 0.1% acetic acid in H2O; gradient: t0min 45/55–t0.5min 45/55–t5.5min 95/5–t7.0min 95/5–t7.2min 45/55–t8.5min 45/55). For the identification of degradation products, samples taken after 24 h were additionally subjected to HPLC-HRMS analysis using HPLC system 6. In brief, the NO-COXIBs were converted to the respective hydroxymethyl-substituted compounds and in the presence of cysteine additionally to the cysteine adduct, which could be identified by the respective Δm/z shifts. A detailed comparison of calculated and found m/z-signals is given in Supplementary Material Table S1, and copies of HPLC-HRMS chromatograms and selected spectra are given in Supplementary Material Figures S56–S66.

Row | SMILES | intact compound (after 70 h, absence of cysteine) | intact compound (after 70 h, presence of cysteine) | intact compound (after 8 days (192 h))
1 | CCC(=O)NS(=O)(=O)c1ccc(-n2nc(CO[N+](=O)[O-])cc2-c2ccc(OC)cc2)cc1 [6d, {5-(4-Methoxyphenyl)-1-[4-(N-propionylsulfamoyl)phenyl]-1H-pyrazol-3-yl}methyl nitrate] | consumed | quantitatively consumed | –
2 | Cc1ccc(-c2c(Cl)c(CO[N+](=O)[O-])nn2-c2ccc(S(C)(=O)=O)cc2)cc1 [5c, {4-Chloro-1-[4-(methylsulfonyl)phenyl]-5-(p-tolyl)-1H-pyrazol-3-yl}methyl nitrate] | – | – | 57%

Source: publication PMC9573605, “Exploring Nitric Oxide (NO)-Releasing Celecoxib Derivatives as Modulators of Radioresponse in Pheochromocytoma Cells” (Molecules, 2022)
